Laboratory results: US20170246146A1, “POLYPHENOL FOR WOUND HEALING” (IC-MedTech Corporation, priority 2012, published 2017)
Each block holds one compound with its values, some of them ahead of it.

Key:
[1] = system: Human foreskin fibroblasts; assay: Scratch wound assay, fibroblasts; type: cell-based
Experimental: (§1) A scratch wound assay was employed to evaluate the in vitro wound healing capacity of APATONE® and TOLECINE®. For the scratch-wound assay, cells were seeded on 6-well culture plates. At 80% cell confluence, a scratch-wound was produced using a sterile pipette tip and the size of the gap was measured and set to 100%. The cells were treated with test agents at various concentrations and the closing of the scratch-wound was measured at 24, 48, and 72 hrs. This experiment was performed three times for each cell line. Human foreskin fibroblasts were employed to optimize the assay because of the involvement of fibroblasts in wound healing. Human skin fibroblasts were scratched and then sham treated or treated with VC alone or APATONE® for 24 hrs.

VEGF = VEGF production (VEGF Quantiglo Immunoassay); type: cell-based, Human; settings: for VEGF: keratinocytes
Experimental: Human adult keratinocytes were plated into a 6 well plate and allowed to grow to >80% confluency. The back of a rubber scraper was then used to scratch each plate, creating a uniform linear wound across each well. Cells were then rinsed with media to remove non-adherent cells and drugs at indicated concentrations were added. Media aliquots were taken at 1, 3, 6, or 16 hrs and spun down at 6,250 rpm for 10 minutes. Supernatants were then collected and stored at −4 ° C. until assayed using the VEGF Quantiglo Immunoassay (Research and Development Systems) according to kit instructions.

[2] = system: MatTek EPIDERMFT™ (Full Thickness skin) tissue; assay: MatTek EPIDERM MTT Viability Assay (dermal irritation potential); type: cell-based, Human
Experimental: The MatTek EPIDERM™ MTT Viability Assay was employed as a quantitative method for assessing the dermal irritation potential of TOLECINE®. MatTek EPIDERMFT™ (Full Thickness skin) tissue samples were treated with TOLECINE® (neat) or a positive control (1% Triton X-100) for various exposure times ranging from 1 to 24 hrs. Negative controls (undosed tissues) were tested for 8 hrs only. Following treatment, the viability of the tissues were determined using MTT uptake and conversion and the absorbance of each sample was measured at 540 nm using a reference wavelength of 690 nm. The viability was then expressed as a percent of control values. The mean percent of each time point was used to calculate an ET50, which represented the time at which the EPIDERMFT™ tissue viability was reduced 50% compared to the control tissue.

Keratinocytes = assay: Scratch wound assay, keratinocytes; type: cell-based; settings: compared with fibroblast data
Experimental: as §1
Keratinocytes were grown to 90% confluence and then scratched to generate a wound. Cells were then treated with sham (fresh media) or a single dose of APATONE® at 75 μM sodium ascorbate and 0.75 μM menadione sodium bisulfate. […] Without being limited by any theory, the decreased closure of APATONE® during the second 24 hrs probably reflects metabolism of the vitamins by the keratinocytes.

prostaglandin E2 (PGE-2) = assay: PGE-2 ELISA in EPIDERMFT assay medium; type: cell-based, Human; settings: 24 hr exposure; negative control 6.1 ng/mL
Experimental: (§2) Enzyme-linked immunosorbent assay (ELISA) kits were used to test for the presence of the cytokine interleukin-1 alpha (IL-1α) and the inflammatory mediator prostaglandin E2 (PGE-2) in the assay medium. Approximately 1 mL of the media from beneath the tissue millicells were sampled at the end of dosing and incubation. The assays were conducted according to the manufacturer's directions on both undiluted samples and samples diluted to 10% in order to obtain the detectable protein range of the ELISA kits. Protein standards were run with both ELISAs in order to derive standard curves.

[3] = system: full thickness excision wounds; assay: Wound healing studies in mice; type: in vivo, Balbc/J male mice; settings: topical, days 0-5, by day 5, glycerin 27%
Experimental: Sixty, 5-6 week old Balbc/J male mice were ear notched for identification and housed in individually and positively ventilated polycarbonate cages with HEPA filtered air. Bed-o-cob corn cob bedding were used and cages were changed every two weeks. The animal room was lighted entirely with artificial fluorescent lighting, with a controlled 12 hr light/dark cycle. The normal temperature and relative humidity ranges in the animal rooms were 22±4° C. and 50±15%, respectively. The animal rooms were set to have 15 air exchanges per hour. Filtered tap water, acidified to a pH of 2.8 to 3.1, and rodent chow were provided ad libitum.
Following a 5 to 7 days acclimation, mice were randomized by body weight into 6 cohorts of 10 mice each. On study day 0 (D0), mice were anesthetized and two full thickness excision wounds (˜6 mm) were made on the dorsum (backs) of mice. One of the wounds was covered using a semi-occlusive polyurethane dressing (TEGADERM™). […]
Wound measurements were made on days 5, 7, 9, and 11. […] Traces were captured by scan and analyzed by a computer imaging software. […]
After being wounded, the mice had saddles applied around the wounds to prevent cross contamination and wound closure due to constriction. […] At day 5, test agents were removed and changes in wound area were measured in an effort to gauge the persistence of the compounds in the wound site.

intracellular peroxides = assay: Pro-oxidant production (DCFH-DA fluorescence); type: cell-based
Experimental: Production of intracellular peroxides was monitored spectrofluorometrically using dichlorofluorescein diacetate (DCFH-DA) as a fluorescent dye. Cell suspensions were treated with DCFH-DA at a final concentration of 100 μM in the medium. Oxidation of DCFH by peroxides yields dichlorofluorescein (DCF). Fluorescence was monitored at the excitation and emission wavelengths of 485 and 530 nm, respectively, using a fluorescence plate reader (50 cycles per 20 s at 37° C.) (Biotek Synergy HT®). Hydrogen peroxide (μM) was determined based on fluorescence generated from a hydrogen peroxide standard curve.
Apatone production of hydrogen peroxide was determined based a standard curve. Serial dilutions of Apatone (1000/10, 500/5, 250/2.5, 125/1.25, and 62.5/0.625) were then added to cells pre-treated with DCF-DA and read over a series of time points (1, 3, 5, and 24 hrs).

[4] = system: interleukin-1 alpha (IL-1α); assay: IL-1α ELISA in EPIDERMFT assay medium; type: cell-based, Human; settings: 24 hr exposure; negative control 8.156 pg/mL
Experimental: as §2

Compound: O=C1O[C@H]([C@@H](O)CO)C(O)=C1O [VC, L-ascorbic acid, reference compound]
- width of the scratch ([1]; 2,000 μM VC, at 24 hrs, 28.0 μm immediately after scratching (sham 15.8 to 8.3 μm)): 16.9 μm
- activity in scratch wound assay ([1]; VC alone at 75 μM): not active
- wound closed ([1]; fibroblasts, after 24 hrs, FIG. 1 (VC 2000 μM), sham about 57%): about 43%

- PGE-2 levels (prostaglandin E2 (PGE-2)): 9.5 ng/mL
Compound: Oc1ccc(C#Cc2ccc(O)cc2)cc1 [TOLECINE®, 4,4′-(ethyne-1,2-diyl)diphenol]
- wound closure ([1]; 2.5 μM, 24 hrs, sham 30%): 85%
- wound closure ([1]; 2.5 μM, 48 hrs, sham 80%): 100%
- wound closure ([1]; 5 μM, 24 hrs, sham 30%): 85%
- wound closure ([1]; 5 μM, 48 hrs, sham 80%): 100%
- wound closure ([1]; 10 μM, 24 hrs, sham 30%): 100%
- VEGF (VEGF; 10 μM, 1 hr, sham 12.4): 32.6 pg/mL
- VEGF (VEGF; 10 μM, 3 hrs, sham 13.2): 29.4 pg/mL
- VEGF (VEGF; 10 μM, 6 hrs, sham 42.0): 120 pg/mL
- VEGF (VEGF; 10 μM, 6 hrs, sham 42.0, listed as TOL): 120.7 pg/mL
- VEGF (VEGF; 10 μM, 16 hrs, sham 67.4): 237 pg/mL
- VEGF (VEGF; 10 μM, 16 hrs, sham 67.4, listed as TOL): 237.2 pg/mL
- VEGF production, early time course (VEGF; 10 μM, first 3 hrs): lag in VEGF production
- VEGF (VEGF; 20 μM, 1 hr, sham 12.4): 121.2 pg/mL
- VEGF (VEGF; 20 μM, 3 hrs, sham 13.2): 148.7 pg/mL
- VEGF (VEGF; 20 μM, 6 hrs, sham 42.0): 225 pg/mL
- VEGF (VEGF; 20 μM, 6 hrs, sham 42.0, listed as TOL): 225.9 pg/mL
- VEGF (VEGF; 20 μM, 16 hrs, sham 67.4): 457 pg/mL
- VEGF (VEGF; 20 μM, 16 hrs, sham 67.4, listed as TOL): 457.2 pg/mL
- ET50 (time at which tissue viability was reduced 50% compared to control) ([2]; human): greater than 24 hrs
- wound closure in keratinocytes (Keratinocytes): closely approximated that observed with fibroblasts
- wound closure ([3]; 2.5% in glycerin): 93%
- wound closure ([3]; 5% TOLECINE® in glycerin): 87%
- hydrogen peroxide production, dose dependence (intracellular peroxides; FIGS. 4-6): dose dependent
- hydrogen peroxide production over time (intracellular peroxides; keratinocytes exposed for 5 hrs or more): continued to increase

Compound: Triton X-100 [positive control, reference compound]
- IL-1α levels [4]: 168 pg/mL
- ET50 (time at which tissue viability was reduced 50% compared to control) ([2]; TOLECINE® neat, positive control 1% Triton X-100, exposure 1 to 24 hrs, MTT): 10.4 h
- PGE-2 levels (prostaglandin E2 (PGE-2)): 1211 ng/mL

Compound: Oc1ccc(C=Cc2cc(O)cc(O)c2)cc1 [resveratrol, reference compound]
- VEGF production compared with TOLECINE® (VEGF; 20 μM each): less than the VEGF production by TOLECINE® at 20 μM
- VEGF (VEGF; resveratrol 20 μM, 1 hr, sham 12.4): 139.0 pg/mL
- VEGF (VEGF; resveratrol 20 μM, 3 hrs, sham 13.2): 166.7 pg/mL
- VEGF (VEGF; resveratrol 20 μM, 6 hrs, sham 42.0): 196 pg/mL
- VEGF (VEGF; resveratrol 20 μM, 6 hrs, sham 42.0, listed as RES): 196.0 pg/mL
- VEGF (VEGF; resveratrol 20 μM, 16 hrs, sham 67.4): 274 pg/mL
- VEGF (VEGF; resveratrol 20 μM, 16 hrs, sham 67.4, listed as RES): 274.1 pg/mL
